Patent US20220056019A1, “FARNESOID X RECEPTOR AGONISTS AND USES THEREOF” (Metacrine, Inc., priority 2018, published 2022)
pEC50: −log10 of the molar value.

Molecular target: T1, hFXR (Homo sapiens, UniProt Q96RI1)
T1 construct: expressed in transfected cells; host or cells: CV-1 cells
T1 sequence (Q96RI1 1-486): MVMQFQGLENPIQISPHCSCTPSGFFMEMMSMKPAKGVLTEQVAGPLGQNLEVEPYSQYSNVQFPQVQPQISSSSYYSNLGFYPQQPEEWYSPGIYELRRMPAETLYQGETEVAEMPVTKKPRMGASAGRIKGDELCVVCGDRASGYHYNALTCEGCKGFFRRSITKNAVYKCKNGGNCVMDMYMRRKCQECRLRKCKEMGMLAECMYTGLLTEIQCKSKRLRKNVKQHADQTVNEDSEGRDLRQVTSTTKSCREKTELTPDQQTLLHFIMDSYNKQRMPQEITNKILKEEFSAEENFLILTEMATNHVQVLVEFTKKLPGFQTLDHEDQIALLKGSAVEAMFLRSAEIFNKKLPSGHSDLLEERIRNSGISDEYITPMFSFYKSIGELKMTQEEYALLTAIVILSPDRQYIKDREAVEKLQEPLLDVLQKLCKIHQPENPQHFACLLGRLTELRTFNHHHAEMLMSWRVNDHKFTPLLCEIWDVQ
T1 sequence (P19793 1-462 partner): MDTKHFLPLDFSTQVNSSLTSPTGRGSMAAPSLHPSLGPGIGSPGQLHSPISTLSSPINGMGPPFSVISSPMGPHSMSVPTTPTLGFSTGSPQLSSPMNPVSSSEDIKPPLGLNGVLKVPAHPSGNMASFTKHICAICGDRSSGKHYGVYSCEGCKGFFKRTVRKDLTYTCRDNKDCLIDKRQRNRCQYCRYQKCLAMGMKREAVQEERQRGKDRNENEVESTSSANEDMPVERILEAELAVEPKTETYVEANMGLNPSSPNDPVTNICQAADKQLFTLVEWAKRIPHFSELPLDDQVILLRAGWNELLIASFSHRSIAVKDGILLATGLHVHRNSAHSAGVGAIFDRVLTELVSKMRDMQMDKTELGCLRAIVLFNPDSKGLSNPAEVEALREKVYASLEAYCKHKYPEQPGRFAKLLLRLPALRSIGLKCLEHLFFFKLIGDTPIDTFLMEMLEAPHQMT
Test: In Vitro FXR Assay (TK): TK-ECRE-luc reporter in transfected CV-1 cells
Type: cell-based
Details: 18 hrs incubation, luminescence
How it was run: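 Reporter gene assay: CV-1 cells co-expressing hFXR, hRXR, TK-ECRE-luc and pCMX-YFP after overnight transfection in charcoal-stripped serum. Treatment with serially diluted compounds lasted 18 hrs at 37 °C, followed by cell lysis and a luminescence measurement.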

| Structure (SMILES) | pEC50 |
| --- | --- |
| COc1ccc([C@H]2CC[C@H](CN(c3cccc(-c4cnn(C(C)C)c4)c3)C(=O)[C@H]3CC[C@H](NC(=O)OC4CCN(C)CC4)CC3)CC2)cc1C [Compound 6.08, 1-Methylpiperidin-4-yl (trans-4-((3-(1-isopropyl-1H-pyrazol-4-yl)phenyl)((trans-4-(4-methoxy-3-methylphenyl)cyclohexyl)meth-yl)carbamoyl)cyclohexyl)carbamate] | 6.00 to 7.30 |
| COc1ccc([C@H]2CC[C@H](CN(c3cccc(-c4cnn(C(C)C)c4)c3)C(=O)[C@H]3CC[C@H](NC(=O)COCCO)CC3)CC2)cc1C [Compound 13.01, trans-4-(2-(2-Hydroxyethoxy)acetamido)-N-(3-(1-isopropyl-1H-pyrazol-4-yl)phenyl)-N-((trans-4-(4-methoxy-3-methylphenyl)cyclohexyl)meth-yl)cyclohexanecarboxamide] | 6.00 to 7.30 |
| COc1ccc(C23CCC(CN(c4cc(C5CCN(C(C)C)C5)ccn4)C(=O)[C@H]4CC[C@H](OC(=O)N5CC(O)C5)CC4)(CC2)CC3)cc1C (stereo partly drawn) [Compound 23.18, 4-((4-(1-(Isopropylpyrrrolidin-3-yl)pyridin-2-yl)((4-(4-methoxy-3-methylphenyl)bicyclo[2.2.2]octan-1-yl)methyl)carbamoyl)cyclo-hexyl trans-3-hydroxyazetidine-1-carboxylate] | 6.00 to 7.30 |
| COc1ccc(C23CCC(CN(c4cc(-c5cnn(C(C)C)c5)ccn4)C(=O)[C@H]4CC[C@H](OC(=O)N5CC(C#N)C5)CC4)(CC2)CC3)cc1C [Compound 4.45, 4-((4-(1-Isopropyl-1H-pyrazol-4-yl)pyridin-2-yl) ((4-(4-methoxy-3-methylphenyl)bicyclo [2.2.2]octan-1-yl)methyl)carbamoyl)cyclohexyl trans-3-cyanoazetidine-1-carboxylate] | ≥ 7.30 |
| COc1ccc(C23CCC(CN(c4ccc(F)c(-c5cnn(C(C)C)c5)c4)C(=O)[C@H]4CC[C@H](OC(=O)N5CC(C#N)C5)CC4)(CC2)CC3)cc1C [Compound 25.11, 4-((4-Fluoro-3-(1-isopropyl-1H-pyrazol-4-yl)phenyl)((4-(4-methoxy-3-methylphenyl)bicyclo[2.2.2]octan-1-yl)methyl)carbamoyl)cyclohexyl trans-3-cyanoazetidine-1-carboxylate] | ≥ 7.30 |
| COCCN(C)C(=O)O[C@H]1CC[C@H](C(=O)N(CC23CCC(c4ccc(OC)c(C)c4)(CC2)CC3)c2cc(-c3cnn(C(C)C)c3)ccn2)CC1 [Compound 4.56, 4-((4-(1-Isopropyl-1H-pyrazol-4-yl)pyridin-2-yl) ((4-(4-methoxy-3-methylphenyl)bicyclo [2.2.2]octan-1-yl)methyl)carbamoyl)cyclohexyl (2-methoxyethyl)(methyl) trans-carbamate] | ≥ 7.30 |
| COc1ccc(C23CCC(CN(c4cc(-c5cnn(C6CCC6)c5)ncn4)C(=O)[C@H]4CC[C@H](OC(=O)N5CC(O)C5)CC4)(CC2)CC3)cc1C [Compound 23.23, 4-((6-(1-Cyclobutyl-1H-pyrazol-4-yl)pyrimidin-4-yl)((4-(4-methoxy-3-methylphenyl)bicyclo[2.2.2]octan-1-yl)methyl)carbamoyl)(trans-cyclohexyl) 3-hydroxyazetidine-1-carboxylate] | ≥ 7.30 |
| COc1ccc([C@H]2CC[C@H](CN(c3cc(-c4cnn(C(C)C)c4)ccn3)C(=O)[C@H]3CC[C@H](OC(=O)NCCCO)CC3)CC2)cc1C [Compound 2.19, trans-4-((4-(1-Isopropyl-1H-pyrazol-4-yl)pyridin-2-yl) ((trans-4-(4-methoxy-3-methylphenyl)cyclohexyl)methyl)carbamoyl) cyclohexyl(3-hydroxypropyl)carbamate] | ≥ 7.30 |
| COc1ccc(C23CCC(CN(c4cc(-c5cnn(C(C)C)c5)ccn4)C(=O)[C@H]4CC[C@H](OC(=O)N5CC(S(C)(=O)=O)C5)CC4)(CC2)CC3)cc1C [Compound 4.11, 4-((4-(1-Isopropyl-1H-pyrazol-4-yl)pyridin-2-yl)((4-(4-methoxy-3-methylphenyl)bicyclo [2.2.2]octan-1-yl)methyl)carbamoyl)cyclohexyl 3-(methylsulfonyl) azetidine-trans-1-carboxylate] | ≥ 7.30 |
| COc1ccc([C@H]2CC[C@H](CN(c3cccc(-c4coc(C5CC5)n4)c3)C(=O)[C@H]3CC[C@H](C(=O)OC)CC3)CC2)nc1C [Compound 18, trans-Methyl 4-((3-(2-cyclopropyloxazol-4-yl)phenyl)((trans-4-(5-methoxy-6-methylpyridin-2-yl)cyclohexyl)methyl)carbamoyl)cyclo-hexanecarboxylate] | ≥ 7.30 |
| COc1ccc(C23CCC(CN(c4cc(-c5coc(C(C)C)n5)ccn4)C(=O)[C@H]4CC[C@H](OC(=O)NCCC(C)(C)O)CC4)(CC2)CC3)cc1C [Compound 23.06, 4-((4-(2-Isopropyloxazol-4-yl)pyridin-2-yl)((4-(4-methoxy-3-methylphenyl)bicyclo[2.2.2]octan-1-yl)methyl)carbamoyl)(trans-cyclohexyl)(3-hydroxy-3-methylbutyl)carbamate] | ≥ 7.30 |
| COCCNC(=O)O[C@H]1CC[C@H](C(=O)N(CC23CCC(c4ccc(OC)c(C)c4)(CC2)CC3)c2cc(-c3cnn(C(C)C)c3)ccn2)CC1 [Compound 4.49, 4-((4-(1-Isopropyl-1H-pyrazol-4-yl)pyridin-2-yl) ((4-(4-methoxy-3-methylphenyl)bicyclo [2.2.2]octan-1-yl)methyl)carbamoyl)cyclohexyl(2-methoxyethyl)trans-carbamate] | ≥ 7.30 |
| COc1ccc([C@H]2CC[C@H](CN(c3cc(-c4coc(C(C)C)n4)ccn3)C(=O)[C@H]3CC[C@H](OC(=O)NC4COC4)CC3)CC2)cc1C [Compound 2.52, trans-4-((4-(2-Isopropyloxazol-4-yl)pyridin-2-yl)(((trans)-4-(4-methoxy-3-methylphenyl)cyclohexyl)methyl)carbamoyl)cyclohexyl oxetan-3-ylcarbamate] | ≥ 7.30 |

Results, then the molecule that gave them:

| pEC50 | Structure (SMILES) |
| --- | --- |
| ≥ 7.30 | COc1ccc(C23CCC(CN(c4cc(-c5cnn(C6(C)CCC6)c5)ccn4)C(=O)[C@H]4CC[C@H](OC(=O)N5CC(O)C5)CC4)(CC2)CC3)cc1C [Compound 24, 4-(((4-(4-Methoxy-3-methylphenyl)bicyclo[2.2.2]octan-1-yl)methyl)(4-(1-(1-methylcyclobutyl)-1H-pyrazol-4-yl)pyridin-2-yl)carbamoyl)cyclohexyl trans-3-hydroxyazetidine-1-carboxylate] |
| ≥ 7.30 | CC(C)c1ccc(C23CCC(CN(c4cncc(-c5cnn(C(C)C)c5)n4)C(=O)[C@H]4CC[C@H](OC(=O)N5CC(O)C5)CC4)(CC2)CC3)cc1 [Compound 4.63, 4-((6-(1-Isopropyl-1H-pyrazol-4-yl)pyrazin-2-yl) ((4-(4-isopropylphenyl)bicyclo[2.2.2]octan-1-yl)methyl)carbamoyl)(trans-cyclohexyl) 3-hydroxyazetidine-1-carboxylate] |
| ≥ 7.30 | COc1ccc([C@H]2CC[C@H](CN(c3cccc(-c4coc(C5CC5)n4)c3)C(=O)[C@H]3CC[C@H](CO)CC3)CC2)nc1C [Compound 20, trans-N-(3-(2-Cyclopropyloxazol-4-yl)phenyl)-4-(hydroxymethyl)-N-((trans-4-(5-methoxy-6-methylpyridin-2-yl)cyclohexyl)methyl)cyclohexanecar-boxamide] |
| ≥ 7.30 | COc1ccc([C@H]2CC[C@H](CN(c3cc(-c4cnn(C(C)C)c4)ccn3)C(=O)[C@H]3CC[C@H](OC(=O)NCCC(C)(C)O)CC3)CC2)cc1C [Compound 2.21, trans-4-((4-(1-Isopropyl-1H-pyrazol-4-yl)pyridin-2-yl) ((trans-4-(4-methoxy-3-methylphenyl)cyclohexyl)methyl)carbamoyl) cyclohexyl(3-hydroxy-3-methylbutyl)carbamate] |
| ≥ 7.30 | CC(C)n1cc(-c2ccnc(N(CC34CCC(C5CCCCC5)(CC3)CC4)C(=O)[C@H]3CC[C@H](OC(=O)N4CC(O)C4)CC3)c2)cn1 [Compound 26.15, 4-(((4-Cyclohexylbicyclo[2.2.2]octan-1-yl)methyl)(4-(1-isopropyl-1H-pyrazol-4-yl)pyridin-2-yl)carbamoyl)cyclohexyl trans-3-hydroxyazetidine-1-carboxylate] |
| ≥ 7.30 | COc1ccc(C23CCC(CN(c4cc(-c5cnn(C(C)C(F)(F)F)c5)ccn4)C(=O)[C@H]4CC[C@H](OC(=O)N5CC(O)C5)CC4)(CC2)CC3)cc1C (stereo partly drawn) [Compound 26.11, 4-(((4-(4-Methoxy-3-methylphenyl)bicyclo[2.2.2]octan-1-yl)methyl)(4-(1-(1,1,1-trifluoropropan-2-yl)-1H-pyrazol-4-yl)pyridin-2-yl)carbamoyl)cyclohexyl trans-3-hydroxyazetidine-1-carboxylate] |
